Measurements as given in ChEMBL document CHEMBL1158227, “Effect of Polygonum hydropiper sulfated flavonoids on lens aldose reductase and related enzymes” (J Nat Prod, 1996).
Activity calls are given as the source filed them. The rule behind the calls is not given here.

Assays:
[1] = Inhibition of pig kidney aldehyde reductase by spectrophotometry; set-up: species or system Sus scrofa
[2] = Inhibition of bovine liver NADH oxidase; set-up: species or system Bos taurus
[3] = target: Aldo-keto reductase family 1 member B1 (Sus scrofa, UniProt P80276); test: Inhibition of pig lens aldose reductase by spectrophotometry
[4] = target: Aldo-keto reductase family 1 member B1 (Sus scrofa) (UniProt P80276); test: Inhibition of pig lens aldose reductase at 1.8 uM by Lineweaver-Burke plot
[5] = target: Aldo-keto reductase family 1 member B1 (Sus scrofa) (UniProt P80276); test: Inhibition of pig lens aldose reductase at 0.54 uM by Lineweaver-Burke plot

| Structure (SMILES) | IC50 [1] [µM] | IC50 [2] [µM] | IC50 [3] [µM] | Activity [4] | Activity [5] |
| --- | --- | --- | --- | --- | --- |
| COc1ccc(-c2oc3cc(OS(=O)(=O)O)cc(O)c3c(=O)c2O[C@@H]2O[C@H](CO)[C@@H](O)[C@H](O)[C@H]2O)cc1O | > 50 | > 50 | 5 | – | – |
| O=c1c(O[C@@H]2O[C@H](CO)[C@@H](O)[C@H](O)[C@H]2O)c(-c2ccc(O)c(O)c2)oc2cc(O)cc(O)c12 [ISOQUERCETIN] | > 64 | > 64 | 16 | – | – |
| COc1cc(-c2oc3cc(O)cc(O)c3c(=O)c2O)ccc1O [ISORHAMNETIN] | > 95 | 88.6 | > 95 | – | – |
| O=c1c(O)c(-c2ccc(O)c(O)c2)oc2cc(O)cc(O)c12 [QUERCETIN] | > 91 | 65.3 | 50.1 | – | – |
| COc1cc(O)c2c(=O)c(O)c(-c3ccc(O)c(OC)c3)oc2c1 [RHAMNAZIN] | > 91 | > 91 | > 91 | – | – |

Results, then the compound that gave them:

| IC50 [1] [µM] | IC50 [2] [µM] | IC50 [3] [µM] | Activity [4] | Activity [5] | Structure (SMILES) |
| --- | --- | --- | --- | --- | --- |
| 43.5 | > 67 | 30.1 | – | – | COc1cc(O)c2c(=O)c(OS(=O)(=O)O)c(-c3ccc(O)c(OC)c3)oc2c1 |
| 55.6 | > 71 | 50.9 | – | – | O=c1c(OS(=O)(=O)O)c(-c2ccc(O)c(O)c2)oc2cc(O)cc(O)c12 |
| 49.5 | > 54 | 1.8 | Active | Active | COc1cc(-c2oc3cc(OS(=O)(=O)O)cc(O)c3c(=O)c2OS(=O)(=O)O)ccc1O |
| > 69 | > 69 | 69 | – | – | COc1cc(-c2oc3cc(O)cc(O)c3c(=O)c2OS(=O)(=O)O)ccc1O [PERSICARIN] |
